The data set in a line: Permeability of compound at pH 7.4 at 200 uM measured after 5 hrs by PAMPA assay.

Each structure is given as a SMILES string.

In turn, `CCC([Se]c1ccc2ccccc2c1)c1nc(N)nc(N2CCN(C)CC2)n1` (stereo unspecified) registered a Papp at 5 h, 200 µM of 10.5 ×10⁻⁶ cm/s.

For the origin of these results see ChEMBL document CHEMBL5335798 (J Med Chem, 2024).
